From the supplement of paper PMC10307832

How the values were obtained:
Experiment in all cases: relative viability (nuclei count vs DMSO), 5 days (fraction); higher = more cells survive
NCI-H1666 = tested on: NCI-H1666
In short: (§1)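 The day after seeding in 1536-well plates, lung cancer cell lines were treated by pin tool with a single drug, or with a fixed anchor-drug dose together with five library-drug doses (not always all listed) in √10 steps. After 5 days, a combined fix-and-stain solution (final 0.05% Triton X-100, 1% formaldehyde, 1 ug/ml Hoechst) was added. Nuclei counted on 4× images gave relative viability as treated counts over vehicle counts, reported as the median of duplicate plates.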

ABC-1 = tested on: ABC-1
In short: as §1

NCI-H1355 = tested on: NCI-H1355
In short: as §1

NCI-H727 = tested on: NCI-H727
In short: as §1

NCI-H2170 = tested on: NCI-H2170
In short: as §1

NCI-H460 = tested on: NCI-H460
In short: as §1

SW 1573 = tested on: SW 1573
In short: as §1

NCI-H520 = tested on: NCI-H520
In short: as §1

NCI-H647 = tested on: NCI-H647
In short: as §1

NCI-H1944 = tested on: NCI-H1944
In short: as §1

NCI-H1755 = tested on: NCI-H1755
In short: as §1

O=C(O)CCCCC(CCSCc1ccccc1)SCc1ccccc1 (centres undefined) [CPI-613] + CS(=O)(=O)CCNCc1ccc(-c2ccc3ncnc(Nc4ccc(OCc5cccc(F)c5)c(Cl)c4)c3c2)o1 [Lapatinib] (partner 2 µM)
relative viability (NCI-H1666; first compound 5 µM): 0.629
relative viability (NCI-H1666; first compound 15.81 µM): 0.555
relative viability (NCI-H1666; first compound 50 µM): 0.656
relative viability (NCI-H1666; first compound 158.11 µM): 0.162
relative viability (NCI-H1666; first compound 500 µM): 0.109
relative viability (ABC-1; first compound 5 µM): 1
relative viability (ABC-1; first compound 15.81 µM): 0.948
relative viability (ABC-1; first compound 50 µM): 1.33
relative viability (ABC-1; first compound 158.11 µM): 1.27
relative viability (ABC-1; first compound 500 µM): 1.57
relative viability (NCI-H1355; first compound 5 µM): 1.02
relative viability (NCI-H1355; first compound 15.81 µM): 0.872
relative viability (NCI-H1355; first compound 50 µM): 0.979
relative viability (NCI-H1355; first compound 158.11 µM): 0.642
relative viability (NCI-H1355; first compound 500 µM): 0.589
relative viability (NCI-H727; first compound 5 µM): 0.739
relative viability (NCI-H727; first compound 15.81 µM): 0.609
relative viability (NCI-H727; first compound 50 µM): 0.683
relative viability (NCI-H727; first compound 158.11 µM): 0.673
relative viability (NCI-H727; first compound 500 µM): 0.0973
relative viability (NCI-H2170; first compound 5 µM): 0.259
relative viability (NCI-H2170; first compound 15.81 µM): 0.273
relative viability (NCI-H2170; first compound 50 µM): 0.249
relative viability (NCI-H2170; first compound 158.11 µM): 0.261
relative viability (NCI-H2170; first compound 500 µM): 0.188
relative viability (NCI-H460; first compound 5 µM): 0.87
relative viability (NCI-H460; first compound 15.81 µM): 0.853
relative viability (NCI-H460; first compound 50 µM): 0.838
relative viability (NCI-H460; first compound 158.11 µM): 0.243
relative viability (NCI-H460; first compound 500 µM): 0.0072
relative viability (SW 1573; first compound 5 µM): 1.24
relative viability (SW 1573; first compound 15.81 µM): 1.06
relative viability (SW 1573; first compound 50 µM): 1.13
relative viability (SW 1573; first compound 158.11 µM): 1.06
relative viability (SW 1573; first compound 500 µM): 1
relative viability (NCI-H520; first compound 5 µM): 0.887
relative viability (NCI-H520; first compound 15.81 µM): 0.634
relative viability (NCI-H520; first compound 50 µM): 0.912
relative viability (NCI-H520; first compound 158.11 µM): 0.264
relative viability (NCI-H520; first compound 500 µM): 0.103
relative viability (NCI-H647; first compound 5 µM): 0.962
relative viability (NCI-H647; first compound 15.81 µM): 0.698
relative viability (NCI-H647; first compound 50 µM): 0.757
relative viability (NCI-H647; first compound 158.11 µM): 0.27
relative viability (NCI-H647; first compound 500 µM): 0.0102
relative viability (NCI-H1944; first compound 5 µM): 0.818
relative viability (NCI-H1944; first compound 15.81 µM): 0.725
relative viability (NCI-H1944; first compound 50 µM): 0.753
relative viability (NCI-H1944; first compound 158.11 µM): 0.77
relative viability (NCI-H1944; first compound 500 µM): 0.632
relative viability (NCI-H1755; first compound 5 µM): 0.997
relative viability (NCI-H1755; first compound 15.81 µM): 0.996
relative viability (NCI-H1755; first compound 50 µM): 1
relative viability (NCI-H1755; first compound 158.11 µM): 0.969
